The values below come from paper PMC3720735 (PLoS ONE, 2013).

Test [1] has as its target T1, α7-nicotinic acetylcholine receptor (Homo sapiens, UniProt P36544).
T1 construct: gene CHRNA7
As to the kind of experiment: two-electrode voltage clamp of ACh currents in Xenopus oocytes expressing the human receptor. It counts as cell-based.

Test [2] deals with T2, α7-nACh receptor (Rattus norvegicus, UniProt Q05941).
T2 construct: gene Chrna7
The class given is cell-based.

Molecules are shown by their SMILES.

T2 sequence (Q05941 23-502): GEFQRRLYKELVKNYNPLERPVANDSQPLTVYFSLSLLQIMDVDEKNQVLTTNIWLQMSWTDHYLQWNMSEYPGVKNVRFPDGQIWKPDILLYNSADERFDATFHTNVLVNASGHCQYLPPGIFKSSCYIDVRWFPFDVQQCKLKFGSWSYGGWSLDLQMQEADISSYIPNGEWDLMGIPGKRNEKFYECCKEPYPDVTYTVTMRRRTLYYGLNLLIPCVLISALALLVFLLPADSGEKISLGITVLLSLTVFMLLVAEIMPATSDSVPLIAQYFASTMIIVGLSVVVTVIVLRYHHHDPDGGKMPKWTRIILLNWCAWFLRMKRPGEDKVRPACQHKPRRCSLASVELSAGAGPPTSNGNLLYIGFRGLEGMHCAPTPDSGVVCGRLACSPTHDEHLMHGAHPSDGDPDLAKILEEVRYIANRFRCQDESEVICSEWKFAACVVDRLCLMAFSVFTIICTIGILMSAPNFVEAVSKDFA
T1 sequence (P36544 23-502): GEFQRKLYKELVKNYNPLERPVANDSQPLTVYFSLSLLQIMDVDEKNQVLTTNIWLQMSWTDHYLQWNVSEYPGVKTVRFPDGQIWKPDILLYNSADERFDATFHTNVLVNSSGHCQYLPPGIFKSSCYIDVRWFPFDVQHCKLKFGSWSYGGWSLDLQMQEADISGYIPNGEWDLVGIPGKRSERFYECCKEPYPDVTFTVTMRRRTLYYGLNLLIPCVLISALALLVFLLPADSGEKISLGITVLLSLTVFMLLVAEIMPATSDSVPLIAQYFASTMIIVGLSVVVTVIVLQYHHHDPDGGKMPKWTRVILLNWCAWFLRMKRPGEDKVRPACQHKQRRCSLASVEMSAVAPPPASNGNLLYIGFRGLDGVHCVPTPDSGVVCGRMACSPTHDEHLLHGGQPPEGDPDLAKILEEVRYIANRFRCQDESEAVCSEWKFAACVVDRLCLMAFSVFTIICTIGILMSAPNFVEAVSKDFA

In the case of `CC1CCC(C(C)C)C(O)C1` (racemic) [menthol], in test [1], half-maximal inhibition (IC50) required 32.6 ± 2.3 µM.

Regarding `O=C(N[C@H]1CN2CCC1CC2)c1ccc(Cl)cc1` [PNU282987], the “GCaMP5G Ca2+ imaging in PC12 cells (endogenous receptor), 10 μM, blocked by α-bu” value in test [2] is recorded as “activation of the α7-nACh receptor with nicotine or the selective α7-agonist PNU282987 (PNU) was associated with a significant increase”.
